Reference: EP4772510A2, “BENZAZEPINONE COMPOUND AND USE THEREOF” (HANGZHOU BIO-SINCERITY PHARMA-TECHCO., LTD., priority 2023, dated 2025)

Tests used:
[1] = Pharmacokinetic experiment in SD rats; details: p.o, 5 mg/kg vs i.v, 0.5 mg/kg
Description: (§1) Example 59: Pharmacokinetic Experiment of Compounds in SD Rats
(§2) SD rats, male, 6-8 weeks old, purchased from Zhejiang Vital River Laboratory Animal Technology Co., Ltd., production license No.: SCXK (Zhejiang) 2019-0001. The animals were maintained in an SPF-grade animal room of Hangzhou Bio-Sincerity Pharma-Tech Co., Ltd., with the experimental animal use license No. of SYXK (Zhejiang) 2021-0014. The animals were used after being acclimatized for at least one week. All experiments were performed in strict compliance with the regulations on experimental animals.
(§3) Four hours after administration, food was provided.
(§4) After administration to SD rats, about 300 µL of blood was collected from the orbit of each animal and anticoagulated with EDTA-Na2. […] The collected blood was placed in an ice bath and centrifuged within 1 h to separate plasma (centrifugation conditions: 2000× g, 10 min, 4 °C). 50 µL of plasma sample was taken, subjected to protein precipitation, and then assayed by UHPLC-MS. The assay data were analyzed and processed using WinNonLin8.1 pharmacokinetic software to obtain pharmacokinetic parameters.

U937 cells = assay: Inhibition of TNF-α-induced necroptosis of U937 cells (CCK-8 assay); assay type: cell-based, human; details: 18 h
Procedure, shortened: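 U937 cells (3.6 × 10^4/well) rested 6 h, then exposed to TNF-α 20 ng/mL, BV6 2 µM and Z-VAD-FMK 20 µM plus compound (8-point 3-fold series, 1000–0.46 nM, duplicate) for 18 h. Viability by CCK-8, absorbance at 450 nm after 2-4 h at 37 °C; EC50 calculated.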

in vivo = details: rat
Description: as §1, §2, §3, §4

[2] = Homo sapiens, U-937, TNF-α 20 ng/mL + BV6 2 µM + Z-VAD-FMK 20 µM
[3] = male, SD, plasma, intravenous, 0.5 mg/kg
[4] = male, SD, plasma, oral, 5 mg/kg
[5] = TNF-α 20 ng/mL + BV6 2 µM + Z-VAD-FMK 20 µM

| Fabs (%) [1] [%] | AUC(0-t) (in vivo; [3]) [ng·h/mL] | Cmax (in vivo; [3]) [ng/mL] | clearance (in vivo; [3]) [mL/min/kg] | half-life (in vivo; [3]) [min] | AUC(0-t) (in vivo; [4]) [ng·h/mL] | CL/F (in vivo; [4]) [mL/min/kg] | Cmax (in vivo; [4]) [ng/mL] | half-life (in vivo; [4]) [min] | AUC(0-t) (in vivo; in vivo, iv, 0.5 mg/kg) [ng·h/mL] | Cmax (in vivo; in vivo, iv, 0.5 mg/kg) [ng/mL] | clearance (in vivo; in vivo, iv, 0.5 mg/kg) [mL/min/kg] | half-life (in vivo; in vivo, iv, 0.5 mg/kg) [min] | AUC(0-t) (in vivo; in vivo, po, 5 mg/kg) [ng·h/mL] | CL/F (in vivo; in vivo, po, 5 mg/kg) [mL/min/kg] | Cmax (in vivo; in vivo, po, 5 mg/kg) [ng/mL] | half-life (in vivo; in vivo, po, 5 mg/kg) [min] | Compound | EC50 (U937 cells; [2]) [nM] | EC50 (U937 cells; [5]) [nM] |
| --- | --- | --- | --- | --- | --- | --- | --- | --- | --- | --- | --- | --- | --- | --- | --- | --- | --- | --- | --- |
| 39.13 ± 11.8 | 5560 | 4320 | 1.5 | 197 | 21700 ± 6530 | 4.03 ± 1.05 | 5820 ± 1210 | 184 ± 24.6 |  |  |  |  |  |  |  |  | CN1C(=O)[C@@H](NC(=O)c2nnc(Cc3ccccc3)[nH]2)COc2ccccc21 [GSK2982772, (S)-5-benzyl-N-(5-methyl-4-oxo-2,3,4,5-tetrahydrobenzo[b][1,4]oxazepin-3-yl)-4H-1,2,4-triazole-3-carboxamide, reference compound] | 10 to 100 |  |
| 111.92 ± 11.87 |  |  |  |  |  |  |  |  | 1980 ± 204 | 1430 ± 181 | 5.54 ± 2.45 | 143 ± 106 | 22600 ± 2370 | 3.7 ± 0.39 | 4100 ± 520 | 176 ± 9.6 | Cn1cc(C#Cc2cc3c4c(c2)CCN4C(=O)C(NC(=O)c2ncn(Cc4c(F)cccc4F)n2)CC3)cn1 (stereo not drawn) [III-1, 1-(2,6-difluorobenzyl)-N-(9-((1-methyl-1H-pyrazol-4-yl)ethynyl)-4-oxo-1,2,3,4,6,7-hexahydroazepino[3,2,1-hi]indol-3-yl)-1H-1,2,4-triazole-3-carboxamide] | < 5 |  |
| 51.37 ± 3.03 |  |  |  |  |  |  |  |  | 5340 ± 1330 | 1940 ± 319 | 1.6 ± 0.39 | 142 ± 38.4 | 27700 ± 1560 | 3.01 ± 0.18 | 4660 ± 132 | 154 ± 41.4 | Cn1cc(C#Cc2cc3c4c(c2)CCN4C(=O)C(NC(=O)c2ncn(Cc4cc(F)ccc4F)n2)CC3)cn1 (stereo not drawn) [III-10, 1-(2,5-difluorobenzyl)-N-(9-((1-methyl-1H-pyrazol-4-yl)ethynyl)-4-oxo-1,2,3,4,6,7-hexahydroazepino[3,2,1-hi]indol-3-yl)-1H-1,2,4-triazole-3-carboxamide] | < 5 |  |
| 64.54 ± 10.10 |  |  |  |  |  |  |  |  | 8830 ± 1290 | 1300 ± 23.2 | 0.91 ± 0.18 | 347 ± 134 | 60400 ± 9300 | 1.39 ± 0.2 | 7330 ± 781 | 191 ± 31.2 | Cn1cc(C#Cc2cc3c4c(c2)CCN4C(=O)C(NC(=O)c2ncn(Cc4ccc(F)c(F)c4)n2)CC3)cn1 (stereo not drawn) [III-12, 1-(3,4-difluorobenzyl)-N-(9-((1-methyl-1H-pyrazol-4-yl)ethynyl)-4-oxo-1,2,3,4,6,7-hexahydroazepino[3,2,1-hi]indol-3-yl)-1H-1,2,4-triazole-3-carboxamide] | 5 to 10 |  |
|  |  |  |  |  |  |  |  |  |  |  |  |  |  |  |  |  | O=C(NC1CCc2cc(C#Cc3cnn(C(F)F)c3)cc3c2N(CC3)C1=O)c1ncn(Cc2c(F)cccc2F)n1 (stereo not drawn) [III-17, 1-(2,6-difluorobenzyl)-N-(9-((1-(difluoromethyl)-1H-pyrazol-4-yl)ethynyl)-4-oxo-1,2,3,4,6,7-hexahydroazepino[3,2,1-hi]indol-3-yl)-1H-1,2,4-triazole-3-carboxamide] |  | < 5 |
| 121.33 ± 40.32 |  |  |  |  |  |  |  |  | 703 ± 191 | 662 ± 110 | 12.2 ± 3.04 | 82.2 ± 12 | 8130 ± 3570 | 10.3 ± 3.12 | 1480 ± 545 | 178 ± 41.4 | O=C(NC1CCc2cc(C#Cc3cnn(C(F)F)c3)cc3c2N(CC3)C1=O)c1ncn(Cc2cc(F)ccc2F)n1 (stereo not drawn) [III-19, 1-(2,5-difluorobenzyl)-N-(9-((1-(difluoromethyl)-1H-pyrazol-4-yl)ethynyl)-4-oxo-1,2,3,4,6,7-hexahydroazepino[3,2,1-hi]indol-3-yl)-1H-1,2,4-triazole-3-carboxamide] | 5 to 10 |  |
| 97.15 ± 40.17 |  |  |  |  |  |  |  |  | 651 ± 66.4 | 619 ± 65.8 | 12.8 ± 1.27 | 71.4 ± 6 | 6250 ± 2790 | 14.9 ± 6.92 | 1280 ± 509 | 160 ± 41.4 | O=C(NC1CCc2cc(C#Cc3cnn(C(F)F)c3)cc3c2N(CC3)C1=O)c1ncn(Cc2ccccc2F)n1 (stereo not drawn) [III-21, N-(9-((1-(difluoromethyl)-1H-pyrazol-4-yl)ethynyl)-4-oxo-1,2,3,4,6,7-hexahydroazepino[3,2,1-hi]indol-3-yl)-1-(2-fluorobenzyl)-1H-1,2,4-triazole-3-carboxamide] | < 5 |  |
| 51.2 ± 3.29 |  |  |  |  |  |  |  |  | 550 ± 34.5 | 896 ± 158 | 15.2 ± 0.98 | 26.4 ± 1.8 | 2810 ± 177 | 29.6 ± 1.95 | 1370 ± 389 | 239 ± 149 | C#Cc1cc2c3c(c1)CCN3C(=O)C(NC(=O)c1ncn(Cc3c(F)cccc3F)n1)CC2 (stereo not drawn) [III-26, 1-(2,6-difluorobenzyl)-N-(9-ethynyl-4-oxo-1,2,3,4,6,7-hexahydroazepino[3,2,1-hi]indol-3-yl)-1H-1,2,4-triazole-3-carboxamide] | < 5 |  |
|  |  |  |  |  |  |  |  |  |  |  |  |  |  |  |  |  | N-(9-((1-(difluoromethyl)-1H-pyrazol-4-yl)ethynyl)-4-oxo-1,2,3,4,6,7-hexahydroazepino[3,2,1-hi]indol-3-yl)-1-(4-methylbenzyl)-1H-1,2,4-triazole-3-carboxamide [III-25] |  | 10 to 100 |
